Reference: ChEMBL document CHEMBL6087390, “Pyridine and Pyrimidine hybrids as privileged scaffolds in antimalarial drug discovery: A recent development” (Bioorg Med Chem Lett, 2024)
Converted amounts (≈) assume the structure as drawn. Blank lines part the entries; values can stand above or below the compound they belong to.

What was measured:
Plasmodium falciparum [1] = assay: microbe, parasite or virus in culture; conditions: 3D7
[2] = Cytotoxicity against african green monkey Vero cells assessed as cell viability measured after 48 hrs by MTT assay; type: toxicity, cell-based, Chlorocebus sabaeus; conditions: chlorocebus sabaeus, time 48 hrs
[3] = Cytotoxicity against human MRC5 cells assessed as inhibition of cell growth incubated for 72 hrs by MTT assay; type: toxicity, cell-based
Plasmodium falciparum [4] = assay: microbe, parasite or virus in culture; conditions: 3D7, 48 h
Plasmodium falciparum [5] = assay: Antiplasmodial activity against Plasmodium falciparum K1; type: functional, organism-based
Plasmodium falciparum [6] = assay: microbe, parasite or virus in culture; conditions: 3D7, 72 h
Plasmodium falciparum [7] = assay: Antimalarial activity against CQ-resistant Plasmodium falciparum Dd2; type: functional, organism-based
HepG2 [8] = assay: Cytotoxicity against human HepG2 cells assessed as reduction in cell viability measured for 48 hrs by SRB assay; type: functional
Plasmodium falciparum [9] = assay: Antiplasmodial activity against multidrug resistant Plasmodium falciparum K1 assessed as reduction in parasite growth by [3H]-hypoxanthine incorporation assay; type: functional, organism-based
HepG2 [10] = assay: Cytotoxicity against human HepG2 cells assessed as reduction in cell viability measured for 48 hrs by MTT assay; type: functional
Plasmodium falciparum [11] = assay: Antiplasmodial activity against Plasmodium falciparum Dd2 assessed as reduction in parasite growth measured after 72 hrs by SYBR Green 1 staining based assay; type: functional, organism-based; conditions: Dd2, 72 h
Plasmodium falciparum [12] = assay: Antimalarial activity against Plasmodium falciparum 3D7 assessed as reduction in malarial growth measured after 48 hrs by SYBR green dye based analysis; type: functional, organism-based; conditions: 3D7, 48 h
Plasmodium falciparum [13] = assay: Antimalarial activity against Plasmodium falciparum RKL9; type: functional, organism-based

- IC50 (Plasmodium falciparum [1]): 23.1 µM
SMILES: O=C(N/N=C/c1cn(-c2ccccc2)nn1)c1ccncc1

- IC50 (Plasmodium falciparum [1]): 14.5 µM
SMILES: O=C(N/N=C/c1cn(-c2ccc(Cl)cc2)nn1)c1ccncc1

- IC50 (Plasmodium falciparum [1]): 23.2 µM
SMILES: COc1ccc(-n2cc(/C=N/NC(=O)c3ccncc3)nn2)cc1

SMILES: CC(C)=CCC1=C(OCc2cn(Cc3ccccn3)nn2)C(=O)c2ccccc2C1=O
- CC50 at 48 h [2]: 658 µM

SMILES: CC(C)=CCC1=C(OCc2cn(-c3cccnc3)nn2)C(=O)c2ccccc2C1=O
- CC50 at 48 h [2]: 1030 µM

SMILES: CCc1nnc2ccc(S(=O)(=O)N(Cc3cccc(F)c3)c3ccc(OC)cc3)cn12
- IC50 at 72 h [3]: 18.2 µM

- IC50 (Plasmodium falciparum [4]): 0.04 µg/mL (≈ 0.0822 µM)
SMILES: Cc1nn(-c2ccccc2)c(-n2cncn2)c1-c1cc(-c2ccc(F)cc2)nc2nc3ccccc3n12

- IC50 (Plasmodium falciparum [5]): 11.5 µM
SMILES: Cc1cc(C)cc(N(Cc2cc(C)ccc2C)S(=O)(=O)c2cccn3c(C)nnc23)c1
- IC50 at 72 h [3]: 48.5 µM

- IC50 (Plasmodium falciparum [6]): 0.08 µM
SMILES: Cc1cc(Nc2ccc(S(=O)(=O)Nc3ccc(F)cc3)cc2)n2nc(C(F)(F)F)nc2n1

- IC50 (Plasmodium falciparum [6]): 0.03 µM
SMILES: Cc1ccc(NS(=O)(=O)c2ccc(Nc3cc(C)nc4nc(C(F)(F)F)nn34)cc2)cc1

SMILES: COc1ccc2nc(/C=C/c3ccncc3)cc(NCCN(C)C)c2c1
- IC50 (Plasmodium falciparum [7]): 0.03 µM

SMILES: Cc1ccccc1N(C)C(=O)C(c1cccnc1)N(Cc1cc(C(F)(F)F)ccc1F)C1CC1 (stereo not given)
- CC50 (HepG2 [8]): > 30 µM

SMILES: CCc1ccccc1N(C)C(=O)C(c1cncnc1)N(Cc1cccc(C(F)(F)F)c1)C1CC1 (stereo not given)
- EC50 (Plasmodium falciparum [9]): 0.57 µM
- CC50 (HepG2 [10]): > 30 µM

SMILES: Cc1ccccc1-n1nnnc1C(c1cncnc1)N(Cc1cc(F)cc(C(F)(F)F)c1)C1CC1 (stereo not given)
- EC50 (Plasmodium falciparum [11]): 1.2 µM
- CC50 (HepG2 [8]): 36 µM

SMILES: O=C(C(c1cccnc1)N(Cc1cccc(C(F)(F)F)c1)C1CC1)N1CCCCC1 (stereo not given)
- CC50 (HepG2 [8]): > 20 µM

SMILES: CCCN(C(c1cncnc1)c1nnnn1-c1ccccc1C)C1(c2cccc(C(F)(F)F)c2)CC1 (stereo not given)
- CC50 (HepG2 [8]): 13 µM

SMILES: CN(C(=O)C(c1cncnc1)N(Cc1cccc(C(F)(F)F)c1)C1CC1)c1ccccc1 (stereo not given)
- EC50 (Plasmodium falciparum [9]): 2 µM
- CC50 (HepG2 [10]): > 30 µM

SMILES: CCCN(C(C(=O)N(C)c1ccccc1C)c1cccnc1)C1(c2cccc(C(F)(F)F)c2)CC1 (stereo not given)
- CC50 (HepG2 [8]): > 15 µM

SMILES: Cc1ccccc1N(C)C(=O)C(c1cccnc1)N(Cc1cccc(OC(F)(F)F)c1)C1CC1 (stereo not given)
- CC50 (HepG2 [8]): > 30 µM

SMILES: Cc1ccccc1N(C)C(=O)C(c1cccnc1)N(Cc1cccc(C(F)(F)F)c1)C1CC1 (stereo not given)
- CC50 (HepG2 [8]): > 20 µM

SMILES: FC(F)(F)c1cccc(CN(C2CC2)C(c2cccnc2)c2nnnn2C2CC2)c1 (stereo not given)
- EC50 (Plasmodium falciparum [11]): 3 µM

SMILES: Cc1ccccc1N(C)C(=O)C(c1cccnc1)N(Cc1cccc(SC(F)(F)F)c1)C1CC1 (stereo not given)
- CC50 (HepG2 [8]): > 30 µM

SMILES: Cc1ccccc1N(C)C(=O)C(c1cncnc1)N(Cc1cccc(OC(F)(F)F)c1)C1CC1 (stereo not given)
- EC50 (Plasmodium falciparum [9]): 0.59 µM
- CC50 (HepG2 [10]): > 30 µM

SMILES: Cc1ccccc1N(C)C(=O)C(c1cncnc1)N(Cc1cccc(SC(F)(F)F)c1)C1CC1 (stereo not given)
- EC50 (Plasmodium falciparum [9]): 1 µM
- CC50 (HepG2 [10]): > 30 µM

SMILES: CCc1ccccc1N(C)C(=O)C(c1cccnc1)N(Cc1cccc(C(F)(F)F)c1)C1CC1 (stereo not given)
- CC50 (HepG2 [8]): > 30 µM

- IC50 (Plasmodium falciparum [5]): 0.352 µM
- IC50 (Plasmodium falciparum [6]): 0.46 µM
SMILES: CC(C)CC(CN1CCN(c2ncccn2)CC1)Nc1ccnc2cc(Cl)ccc12 (stereo not given)

SMILES: COc1ccc2nc(/C=C/c3ccncc3)cc(N3CCCC3)c2c1
- IC50 (Plasmodium falciparum [7]): 0.36 µM

- IC50 (Plasmodium falciparum [5]): 0.277 µM
- IC50 (Plasmodium falciparum [6]): 0.108 µM
SMILES: Clc1ccc2c(NCCN3CCN(c4ncccn4)CC3)ccnc2c1

SMILES: COc1ccc2nc(/C=C/c3ccncc3)cc(NC3CCCCC3)c2c1
- IC50 (Plasmodium falciparum [7]): 0.27 µM

SMILES: Cc1cc(C)nc(NS(=O)(=O)c2ccc(-n3cc(COc4cc5oc(=O)cc(C)c5cc4Cl)nn3)cc2)n1
- IC50 (Plasmodium falciparum [12]): 8.96 µM

- IC50 (Plasmodium falciparum [4]): 0.09 µg/mL (≈ 0.197 µM)
SMILES: Cc1nn(-c2ccccc2)c(-n2cncn2)c1-c1cc(-c2cc[nH]c2)nc2nc3ccccc3n12

- IC50 (Plasmodium falciparum [1]): 1 µg/mL
SMILES: COc1ccc2cc3[n+](cc2c1OCc1cn(-c2ccc(S(=O)(=O)N4CCN(c5ccccn5)CC4)cc2)nn1)CCc1cc2c(cc1-3)OCO2.[Cl-]

- IC50 (Plasmodium falciparum [1]): > 50 µg/mL
SMILES: Cc1cc(C)nc(NS(=O)(=O)c2ccc(-n3cc(COc4ccccc4)nn3)cc2)n1

- IC50 (Plasmodium falciparum [4]): 1.84 µg/mL (≈ 3.82 µM)
SMILES: Cc1ccc(-c2cc(-c3c(C)nn(-c4ccccc4)c3-n3ccnc3)n3c(n2)nc2ccccc23)cc1

SMILES: COc1ccc2cc3[n+](cc2c1OCc1cn(-c2ccc(S(=O)(=O)Nc4nc(C)cc(C)n4)cc2)nn1)CCc1cc2c(cc1-3)OCO2.[Cl-]
- IC50 (Plasmodium falciparum [12]): 4 µg/mL

- IC50 (Plasmodium falciparum [4]): 1.75 µg/mL (≈ 3.7 µM)
SMILES: Cc1nn(-c2ccccc2)c(-n2ccnc2)c1-c1cc(-c2cccs2)nc2nc3ccccc3n12

- IC50 (Plasmodium falciparum [1]): 20.2 µM
SMILES: O=C(N/N=C/c1cnn(-c2ccccc2)n1)c1ccncc1

- IC50 (Plasmodium falciparum [4]): 0.03 µg/mL (≈ 0.0618 µM)
SMILES: Cc1nn(-c2ccccc2)c(-n2ccnc2)c1-c1cc(-c2ccc(F)cc2)nc2nc3ccccc3n12

SMILES: Cc1cc(C)nc(NS(=O)(=O)c2ccc(-n3cc(COc4ccc5c(C)cc(=O)oc5c4)nn3)cc2)n1
- IC50 (Plasmodium falciparum [12]): 20.5 µM

- IC50 (Plasmodium falciparum [4]): 5.4 µg/mL (≈ 11.8 µM)
- IC50 (Plasmodium falciparum [13]): 2.4 µg/mL (≈ 5.24 µM)
SMILES: COc1ccc(-c2cc(-c3cc(Cl)sc3Cl)nc(N)n2)cc1OCc1ccccc1

- IC50 (Plasmodium falciparum [1]): 59.1 µg/mL
SMILES: Cc1cc(=O)oc2cc(OCc3cn(-c4ccc(S(=O)(=O)N5CCN(c6ccccn6)CC5)cc4)nn3)c(Cl)cc12
